Reference: paper PMC6259458, “Investigating the Spectrum of Biological Activity of Ring-Substituted Salicylanilides and Carbamoylphenylcarbamates” (Molecules, 2010)
Values after ≈ are worked out from the molar mass of the structure shown. Values joined by “and” are separate entries in the source; they are usually repeats but may differ in a detail not shown here. Equal entries are not always repeated. Where two headings read alike, the source gives them in different places.

Key:
[1] = tested on: M. avium paratuberculosis ATCC19698; test: In vitro anti-mycobacterial evaluation, alamarBlue; format: cell-based; conditions: 7 days, NA = no significant activity
[2] = tested on: Mycobacterium avium complex CIT19/06; test: In vitro anti-mycobacterial evaluation, alamarBlue; conditions: 5 days, NA = no significant activity
Protocol: (§2) Clinical isolates of Mycobacterium avium complex CIT19/06 (MAC), M. avium paratuberculosis ATCC19698 (MAP), and M. kansasii CIT11/06 (MK) were grown in Middlebrook broth (MB), supplemented with Oleic, Albumin, Dextrose, Catalase supplement (OADC, Becton Dickinson, UK). […] At log phase growth, culture (10 mL) was centrifuged at 15,000 rpm/20 min using a bench top centrifuge (Model CR 4-12 Jouan Inc., UK). Following removal of the supernatant, the pellet was washed in fresh Middlebrook 7H9GC broth and re-suspended in fresh supplemented MB (10 mL). The turbidity was adjusted to match McFarland standard No. 1 (3 × 10^8 cfu) with MB broth. A further 1:20 dilution of the culture was then performed in MB broth.
(§3) The anti-microbial susceptibility of all three mycobacterial species was investigated in a 96-well plate format. […] Each evaluated compound (100 µL) was incubated with each of the mycobacterial species (100 µL). […] Following incubation, a 10% addition of alamarBlue (AbD Serotec) was mixed into each well and readings at 570 nm and 600 nm were taken, initially for background subtraction and subsequently after 24 h re-incubation. […] For non-interfering compounds, a blue colour in the well was interpreted as an absence of growth and a pink colour was scored as growth. […]

[3] = tested on: M. kansasii CIT11/06; test: In vitro anti-mycobacterial evaluation, alamarBlue; conditions: 5 days, NA = no significant activity
Protocol: as §2, §3

[4] = Lipophilicity determination by RP-HPLC (capacity factor k / log k); format: physicochemical; conditions: C18 column, MeOH 70% / H2O 30%, isocratic
Protocol: Hydrophobicities (log P/Clog P) of the compounds 1-5 and 8-14 were calculated using two commercially available programs (ChemDraw Ultra 10.0 and ACD/LogP) and also measured by means of the RP-HPLC determination of capacity factors k with subsequent calculation of log k. The procedure was performed under isocratic conditions with methanol as an organic modifier in the mobile phase using an end-capped non-polar C18 stationary RP column. The results are shown in Table 1 and illustrated in Figure 1.
A Waters Alliance 2695 XE HPLC separation module and a Waters Photodiode Array Detector 2996 (Waters Corp., Milford, MA, USA) were used. A Symmetry® C18 5 μm, 4.6 × 250 mm, Part No. WAT054275 (Waters Corp., Milford, MA, USA) chromatographic column was used. The HPLC separation process was monitored by Empower™ 2 Chromatography Data Software, Waters 2009 (Waters Corp., Milford, MA, USA). A mixture of MeOH p.a. (70%) and H2O-HPLC – Mili-Q Grade (30%) was used as a mobile phase. The total flow of the column was 1.0 mL/min, injection volume 30 μL, column temperature 30 °C and sample temperature 10°C. The detection wavelength of 210 nm was chosen. The KI methanolic solution was used for the dead time (tD) determination. Retention times (tR) were measured in minutes. The capacity factors k were calculated using the Empower™ 2 Chromatography Data Software according to formula k = (tR - tD)/tD, where tR is the retention time of the solute, whereas tD denotes the dead time obtained using an unretained analyte. Log k, calculated from the capacity factor k, is used as the lipophilicity index converted to log P scale.

[5] = tested on: photosynthetic electron transport (PET) in spinach chloroplasts; test: Inhibition of photosynthetic electron transport (PET) in spinach chloroplasts, DCPIP photoreduction; format: biochemical, Spinacia oleracea L.; conditions: DCPIP photoreduction, pH 7.2
Protocol: Chloroplasts were prepared from spinach (Spinacia oleracea L.) according to Masarovicova and Kralova. The inhibition of photosynthetic electron transport (PET) in spinach chloroplasts was determined spectrophotometrically (Genesys 6, Thermo Scientific, USA), using an artificial electron acceptor 2,6-dichlorophenol-indophenol (DCIPP) according to Kralova et al., and the rate of photosynthetic electron transport was monitored as a photoreduction of DCPIP. The measurements were carried out in phosphate buffer (0.02 mol/L, pH 7.2) containing sucrose (0.4 mol/L), MgCl2 (0.005 mol/L) and NaCl (0.015 mol/L). The chlorophyll content was 30 mg/L in these experiments and the samples were irradiated (~100 W/m^2) from 10 cm distance with a halogen lamp (250 W) using a 4 cm water filter to prevent warming of the samples (suspension temperature 22 °C). The studied compounds were dissolved in DMSO due to their limited water solubility.

[6] = tested on: Absidia corymbifera 272; test: In vitro anti-fungal susceptibility, broth microdilution; format: cell-based
Protocol: (§1) The broth microdilution test was used for the assessment of in vitro anti-fungal activity of the synthesized compounds against Absidia corymbifera 272 (AC) and Trichophyton mentagrophytes 445 (TM). Fluconazole (FLU) was used as the standard since it is a clinically used anti-mycotic drug. The procedure was performed with a two-fold dilution of the compounds in […]., Prague, Czech Republic) buffered to pH 7.0 with 0.165 mol of 3-morpholino-propane-1-sulfonic acid (MOPS, Sigma, Germany). […] Drug-free controls were included. […] The values of the minimum inhibitory concentration (MICs) were determined after 24 and 48 h of static incubation at 35 °C. For T. mentagrophytes, the final MICs were determined after 72 and 120 h of incubation.

[7] = tested on: Trichophyton mentagrophytes 445; test: as above; format: cell-based; conditions: MIC = IC50 value, NA = no significant activity
Protocol: as §1

[8] = tested on: methicilin resistant Staphylococcus aureus H 5996/08; test: In vitro anti-bacterial susceptibility, Mueller-Hinton broth; format: cell-based; conditions: MRSA, methicillin-resistant Staphylococcus aureus, MIC = IC90 value, NA = no significant activity
[9] = tested on: Staphylococcus epidermidis H 6966/08; test: as above; format: cell-based; conditions: MIC = IC90 value, NA = no significant activity
[10] = tested on: photosynthetic apparatus of spinach chloroplasts (PS 2 / PS 1); test: Site of action: restoration of PET by artificial electron donors (DPC, DCPIPH2); format: biochemical, Spinacia oleracea L.
Protocol: To further determine the site of action of the studied compounds, experiments with 1,5-diphenylcarbazide (DPC) were performed. DPC is an artificial electron donor for PS 2 with a known site of action in the Z^•/D^• intermediate. The site of action of the artificial electron acceptor 2,6-dichlorophenol-indophenol (DCPIP) used for monitoring the Hill reaction is plastoquinone on the acceptor side of PS 2 [51]. Thus, if the part of the photosynthetic electron transport chain between manganese cluster and Z/D is inhibited, then DPC will restore PET through PS 2.

[11] = tested on: photosynthetic apparatus of spinach chloroplasts; test: EPR spectra of treated spinach chloroplasts; format: biochemical, Spinacia oleracea L.; conditions: 0.05 M of compound, under irradiation, versus untreated chloroplasts
Protocol: Experiments were then performed to determine the site of action of the studied compounds in the photosynthetic apparatus. In Figure 2, EPR spectra of untreated chloroplasts and those treated with the very effective PET inhibitor, compound 3 (Table 2), are presented. The EPR spectrum of untreated chloroplasts recorded in the dark consists of the typical signal IIslow (g = 2.0046, ΔBpp= 2 mT, see Figure 2A - full line). An increase of EPR signal intensity in the light represents signal IIvery fast (g = 2.0046, ΔBpp= 2 mT; in Figure 2A it is the difference between dotted and full lines). These EPR signals belong to the intermediates D^• and Z^• respectively, which are tyrosine radicals situated in the 161st positions in D2 (for D) and D1 (for Z) proteins at the donor side of PS 2 [48, 49]. […]
EPR spectra were registered by the equipment ERS 230 (ZWG, Acad. Sci., Berlin, Germany), which operates in X-band (~9.3 GHz), with modulation amplitude 0.5 mT and microwave power 5 mW at room temperature. The samples containing chlorophyll (3.2 g/L) were measured in a flat quartz cell and their irradiation (~400 μE/m^2s PAR) was carried out directly in the resonance cavity with a 250 W halogen lamp from 0.5 m distance through 5 cm water filter.

[12] = set-up: method as in PMID 1151976; conditions: parameter of the substituents in the anilide part; cited from earlier work
[13] = tested on: photosynthetic electron transport (PET) in spinach chloroplasts; set-up: method as in earlier work; conditions: standard, read-out: PET inhibition IC50; cited from earlier work
[14] = Lichtheimia corymbifera, 272, 24 h, read-out: MIC AC 24 h
[15] = Lichtheimia corymbifera, 272, 48 h, read-out: MIC AC 48 h
[16] = H6966/08, 24 h, read-out: MIC SE 24 h
[17] = H6966/08, 48 h, read-out: MIC SE 48 h

| SMILES | MIC/IC90 MAP [1] | MIC/IC90 MAC [2] | MIC/IC90 MK [3] | log k [4] | IC50 [5] | MIC [6, 14] | MIC [6, 15] | MIC ([7]; 72 h, read-out: MIC TM 72 h) | MIC ([7]; 120 h, read-out: MIC TM 120 h) | MIC ([8]; 24 h, read-out: MIC MRSA 24 h) | MIC ([8]; 48 h, read-out: MIC MRSA 48 h) | MIC [9, 16] | MIC [9, 17] | restoration of PET through PS 1 after addition of DCPIPH2 ([10]; DCPIPH2 40 μmol/L added to treated chloroplasts) | restoration of PET through PS 2 after addition of DPC ([10]; DPC 2 mmol/L added to treated chloroplasts) | intensity of the EPR signal (signal I) in irradiated chloroplasts [11] | MR (bulk parameter, reflecting bulkiness) [12] | σ (Hammett's parameter) [12] | IC50 [13] |
| --- | --- | --- | --- | --- | --- | --- | --- | --- | --- | --- | --- | --- | --- | --- | --- | --- | --- | --- | --- |
| NNC(=O)c1ccncc1 [INH, Isoniazid, reference compound] | >250 µg/mL | <10 µg/mL | <10 µg/mL | – | – | – | – | – | – | – | – | – | – | – | – | – | – | – | – |
| COc1ccccc1NC(=O)c1ccccc1O [Compound 3, 2-Hydroxy-N-(2-methoxyphenyl)benzamide] | – | – | – | 0.6770 | 1600 nM | 125 µM (≈ 30.4 µg/mL) | 125 µM (≈ 30.4 µg/mL) | 125 µM (≈ 30.4 µg/mL) | 125 µM (≈ 30.4 µg/mL) | 500 µM (≈ 122 µg/mL) | > 500 µM | > 500 µM | > 500 µM | completely restored | not restored | marked increase | 6.5 | 0.00 | – |
| CN(C)C(=O)Nc1ccc(Cl)c(Cl)c1 [DCMU, 3-(3,4-dichlorophenyl)-1,1-dimethylurea] | – | – | – | – | – | – | – | – | – | – | – | – | – | – | – | – | – | – | ~1900 nM and 1900 nM |
| Cc1ccccc1NC(=O)c1ccccc1O [Compound 1, 2-Hydroxy-N-(2-methylphenyl)benzamide] | 250 µg/mL (≈ 1100 µM) | 250 µg/mL (≈ 1100 µM) | 125 µg/mL (≈ 550 µM) | 0.6661 | 2700 nM | 62.5 µM (≈ 14.2 µg/mL) | 250 µM (≈ 56.8 µg/mL) | 62.5 µM (≈ 14.2 µg/mL) | 125 µM (≈ 28.4 µg/mL) | 125 µM (≈ 28.4 µg/mL) | 250 µM (≈ 56.8 µg/mL) | 125 µM (≈ 28.4 µg/mL) | 250 µM (≈ 56.8 µg/mL) | – | – | – | 4.7 | 0.10 | – |
